Reference: patent publication US12140600B2, “Method for measuring activated partial thromboplastin time” (SYSMEX CORPORATION, priority 2019, dated 2024)

Test: Effect of suppressing precipitation of ellagic acid-metal ion complex (salting out, dynamic light scattering and visual check)
Type: physicochemical
Details: for degree of increase in particle size of complex with respect to the increase in salt concentration / precipitation, visually confirmed: additive 100 μM; for degree of increase in particle size of complex with respect to the increase in salt concentration: sodium chloride 10, 50 or 100 mM, FIG. 3; for precipitation, visually confirmed: sodium chloride concentration 100 mM; for precipitation suppressing effect versus additive concentration: additive at various concentrations, FIGS. 4A and 4B
Protocol: In an APTT reagent comprising a metal ion complex of ellagic acid as an activator, when the salt concentration increases, the complex particle size increases by the salting-out effect, and finally precipitation occurs. By utilizing the principle of salting out, the effect of suppressing the precipitation of various additives in ellagic acid-metal ion complex solutions was confirmed.
An ellagic acid-metal ion complex solution was prepared to contain 50 mM HEPES, 8 mM TAPS, and 1% by mass glycine as buffer components, 100 μM ellagic acid, 60 μM zinc chloride, and 50 μM aluminum chloride as a metal ion complex of ellagic acid, and 0.05% ProClin (trademark) 300 (Sigma-Aldrich Co., LLC.) as a preservative. A complex solution comprising each additive at a concentration of 100 μM was obtained by mixing this solution with any one selected from gallic acid, pyrogallol, hydroquinone, 5-methylpyrogallol, resorcinol, or cyclohexanetriol as an additive. As a control, an ellagic acid-metal ion complex solution not comprising an additive was used.
Each complex solution prepared in (1) above was mixed with a 5 M sodium chloride solution to obtain a mixed solution (test group) having a sodium chloride concentration of 10 mM, 50 mM, or 100 mM. The relationship between the salt concentration in each mixed solution and the average particle size of complex was confirmed by a dynamic scattered light method using Zetasizer Nano (Malvern Panalytical Ltd.). The results are illustrated in FIG. 3.
The effect of suppressing precipitation was confirmed in the same manner as in (2) above using the complex solutions containing gallic acid or pyrogallol at various concentrations. The results are illustrated in FIGS. 4A and 4B.

| SMILES | degree of increase in particle size of complex with respect to the increase in salt concentration | precipitation, visually confirmed | precipitation suppressing effect versus additive concentration |
| --- | --- | --- | --- |
| O=C(O)c1cc(O)c(O)c(O)c1 [gallic acid] | small | precipitation has not been visually confirmed | precipitation suppressing effect is observed at all concentrations |
| Oc1cccc(O)c1O [pyrogallol] | small | precipitation has not been visually confirmed | precipitation suppressing effect is observed at all concentrations |
